# In patent publication US20050050594A1, “Tryptophan synthase as a site of herbicide action” (priority 1999, published 2005):
# System: TSβ (Spinacea enzyme)
# Experiment: TSβ assay with partially purified spinach enzyme
# Assay type: biochemical, Spinacea oleracea
# Parameters: key: the increase in the number of “+” corresponds to the increase of inhibition; +++++: the increase in the number of “+” corresponds to the increase of inhibition; +++++++: the increase in the number of “+” corresponds to the increase of inhibition
# Conditions: determined qualitatively
# Protocol: The assay was conducted in microfuge tubes by the TSβ reaction (indole+L-serine→L-tryptophan+H2O). 100 μL of extract was mixed with 150 μL of 0.4 mM indole, 80 mM serine, 0.03 mM PLP, 0.1 M Tris-Cl buffer pH 7.8, containing 7.5 μL of saturated NaCl. The mixture was incubated at 21° C. for increasing time intervals, from 10 min to several hours. The reaction was terminated by adding 25 μL 1 N NaOH, then 1 mL toluene with mixing, and then centifuging in a microfuge 2 min at 10,000×G to partition remaining indole into the toluene phase and away from the enzyme. Remaining indole was subsequently partitioned into the indole reagent phase and reacted with dimethylaminobenzaldehyde: 500 μL of the toluene layer from the microfuge tubes was mixed with 1 ml of the indole reagent in another tube and allowed to separate for 20 min, then the lower layer was carefully pipetted into a cuvette and its absorbance measured at 540 nm. This part of the assay was conducted as known in the art.
# A unique microtiter plate method was also developed to streamline the partitioning steps and data collection. First, the TSβ reaction was performed as above in microfuge tubes. […] The plate was covered by a mylar sheet (to protect the plate reader and avoid evaporation) and absorbance was monitored on the plate reader at 535 nm. […]
# TS was partially purified from spinach for use in the TSβ assay. The greatest degree of purification was achieved by homogenizing the tissue, preparing the 30-50% ammonium sulfate fraction and freezing it, thawing it, and applying the dissolved precipitate to an FPLC column (Waters SW300, Waters Corporation, Franklin, Mass.) to separate the TS activity (measured as TSβ) from the bulk of the protein. […] Because of the low yield of the assay of partially purified plant TS, endogenous enzyme was measured in crude extracts or in enzyme preparations involving one or two purification steps. […]
compound,measurement,value
"O=P(O)(O)CCCCSc1ccccc1O [Compound 22, {4-[(o-hydroxyphenyl)thio]butyl}-phosphonic acid]","TSβ (Spinacea enzyme), relative activity",+
